From PubChem BioAssay (NCI)
Values joined by “and” are separate entries in the source; they are usually repeats but may differ in a detail not shown here. Equal values may be shown once.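 All cell lines were grown in 96-well plates and treated with compound for 48 hours. GI50: concentration for 50% inhibition of growth. TGI denotes the concentration required for complete inhibition of growth.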

What was measured:
Assay in all cases: growth of human tumour cells (NCI), 48 h
[1] = system: CCRF-CEM leukemia
[2] = system: COLO 205 colon
[3] = system: HCC-2998 colon
[4] = system: HOP-62 NSCLC
[5] = system: KM12 colon
[6] = system: NCI-H522 lung
[7] = system: OVCAR-5 ovarian
[8] = system: SK-MEL-5 melanoma
[9] = system: SNB-19 CNS
[10] = system: SNB-75 CNS

Row | Structure (SMILES) | GI50 [1] | TGI [1] | GI50 [2] | TGI [2] | GI50 [3] | TGI [3] | GI50 [4] | TGI [4] | GI50 [5] | TGI [5] | GI50 [6] | TGI [6] | GI50 [7] | TGI [7] | GI50 [8] | TGI [8] | GI50 [9] | TGI [9] | GI50 [10] | TGI [10]
1 | O=S(=O)(NCCNC/C=C/c1ccc(Br)cc1)c1cccc2cnccc12 | 3.45 µM and 13.3 µM | 20.6 µM and 34.2 µM | 2.23 µM and 10.7 µM | 4.9 µM and 24.6 µM | 3.18 µM and 3.91 µM | 10 µM and 14 µM | 7.49 µM and 8.6 µM | 21.7 µM and 22.2 µM | 9.78 µM and 13.7 µM | 23.3 µM and 28.8 µM | 12.6 µM and 13.7 µM | 26.6 µM and 28.3 µM | 13.4 µM and 12.9 µM | 27.5 µM and 28 µM | 6.07 µM and 13.3 µM | 19.3 µM and 26.5 µM | 13.1 µM and 17.7 µM | 27 µM and 34.1 µM | 3.14 µM and 1.85 µM | 14.7 µM and 13.5 µM
2 | Nn1c(-c2ccccc2Cl)nc2ccccc2c1=O | – | > 100 µM | – | > 100 µM | – | > 100 µM | – | > 100 µM | – | > 100 µM | – | > 100 µM | – | > 100 µM | – | > 100 µM | – | > 100 µM | – | > 100 µM
3 | CC(C)(C)c1ccc(OCCCCCCN2CCNCC2)cc1 | 2.88 µM | 12 µM | 1.95 µM | 4.09 µM | 2.38 µM | 4.62 µM | 11 µM | 25.8 µM | 3.89 µM | 13.8 µM | 13.6 µM | 31.7 µM | 13.7 µM | 29.4 µM | 1.87 µM | 3.49 µM | 8.06 µM | 24.4 µM | 3.12 µM | 16 µM
4 | COC1CC(OS(=O)(=O)c2ccc(C)cc2)C(OC(=O)c2ccccc2)C(C)O1 (stereo not given) | > 100 µM | > 100 µM | > 100 µM | > 100 µM | > 100 µM | > 100 µM | > 100 µM | > 100 µM | > 100 µM | > 100 µM | > 100 µM | > 100 µM | > 100 µM | > 100 µM | > 100 µM | > 100 µM | > 100 µM | > 100 µM | > 10 µM | > 100 µM
5 | COc1ccc(-c2cc(-c3ccccc3)nc(SCCCC(=O)NO)n2)cc1 | 0.387 µM | 13.5 µM | 2.08 µM | 6.94 µM | 1.7 µM | 3.81 µM | 0.994 µM | 8.88 µM | 1.72 µM | 5.29 µM | 0.808 µM | 4.32 µM | 0.979 µM | 6.09 µM | 1.26 µM | 2.75 µM | 2.19 µM | 9.27 µM | 0.964 µM | 4.95 µM
6 | Cn1cnc2nc(Cl)nc(NC(C)(C)C(C)(C)O)c21 | – | > 100 µM | – | > 100 µM | – | > 100 µM | – | > 100 µM | – | > 100 µM | – | > 100 µM | – | > 100 µM | – | > 100 µM | – | > 100 µM | – | > 100 µM
7 | O[C@H]1CO[C@H]2[C@@H]1OC[C@@H]2Oc1ccc(Nc2ccnc(Nc3ccc(O[C@H]4CO[C@H]5[C@@H]4OC[C@@H]5O)c(Cl)c3)n2)cc1Cl | 0.666 µM | 5.31 µM | 1.86 µM | 6.16 µM | 2.27 µM | 6.55 µM | 1.71 µM | 4.03 µM | 1.36 µM | 3.48 µM | 1.17 µM | 3.69 µM | 2.47 µM | 8.03 µM | 1.17 µM | 2.43 µM | 2.75 µM | 7.98 µM | 1.27 µM | 4.77 µM
8 | CCOC(=O)C1Oc2ccc([N+](=O)[O-])c3c2C1(O)CCC3 (stereo not given) | – | > 100 µM | – | > 100 µM | – | > 100 µM | – | > 100 µM | – | > 100 µM | – | > 100 µM | – | > 100 µM | – | > 100 µM | – | > 100 µM | – | > 100 µM
